One data set relates to RAW264.7 cells. Description: MTT cytotoxicity assay in RAW264.7 cells. Conditions: RAW264.7 cells, 1, 10 and 50 μM, 24 hours (FIG. 7A). The format is cell-based, murine. On the procedure:
(§1) RAW264.7 cells, which are murine macrophages (ATCC, Manassas, VA, USA), were incubated in low-glucose DMEM (Thermo Fisher Scientific Inc.) supplemented with 10% FBS, 100 IU/ml of penicillin and 100 μg/ml of streptomycin in an incubator. Imiquimod (IMQ; TLR7 agonist) and CpG-ODN (ODN 2395; TLR9 agonist) were obtained from InvivoGen (San Diego, CA, USA), and hydroxychloroquine (HCQ; endosomal TLRs inhibitor) was obtained from Sigma Aldrich Co. (St. Louis, MO, USA).
(§2) RAW264.7 cells were incubated along with 1, 10 or 50 μM of a compound. After 24 hours, MTT (3-(4,5-dimethylthiazol-2-yl)-2,5-diphenyltetrazolium bromide) assay and enzyme-linked immunosorbent assay (ELISA) were sequentially performed.
(Tetrazolium assays rely on reduction of a dye to a coloured formazan, in cell work by metabolically active cells.)

Data set [1] can be described thus: Solubility noted during preparation. The format is physicochemical. Conditions: remark in the preparation example, no medium stated. Here is the method: 0.5 g (4.2 mmol) of […] was dissolved in 50 ml of MC, and 2.8 g (21 mmol, 5 eq) of AlCl3 was added thereto, followed by stirring at room temperature for 1 hour. A solution of 2.28 g (12.3 mmol) of p-nitrobenzoyl chloride in 10 ml of MC was added dropwise to the reaction solution at room temperature. The mixture was stirred overnight. When the reaction was completed, the reactor containing the concentrated residue was placed in an ice bath, 30 g of ice water was added thereto, and then stirred for 1 hour. Then, the result was filtered and washed with water. The solid was dissolved in 30 mL of MC and 10 mL of MeOH, and washed with 30 mL of Sat'd NaHCO3, and the layers were separated. The MC layer was washed with water, and the organic layer was dried over MgSO4, filtered, and concentrated under reduced pressure. After refluxing in 20 ml of IPA, the result was stirred at room temperature for 1 hour and then filtered. The solid was refluxed in 20 ml of MC, stirred at room temperature for 1 hour, and filtered to prepare 85 mg of (3-nitro-phenyl)-(1H-pyrrolo[2,3-b]pyridin-3-yl)-methanone (yield: 7.5%). However, it was not easy to remove impurities, so the yield was low and solubility was also low.

In a further data set the target is T1, TLR7 (Mus musculus, UniProt P58681).
T1 construct: host or cells: RAW264.7 murine macrophages
T1 sequence (P58681 27-1050): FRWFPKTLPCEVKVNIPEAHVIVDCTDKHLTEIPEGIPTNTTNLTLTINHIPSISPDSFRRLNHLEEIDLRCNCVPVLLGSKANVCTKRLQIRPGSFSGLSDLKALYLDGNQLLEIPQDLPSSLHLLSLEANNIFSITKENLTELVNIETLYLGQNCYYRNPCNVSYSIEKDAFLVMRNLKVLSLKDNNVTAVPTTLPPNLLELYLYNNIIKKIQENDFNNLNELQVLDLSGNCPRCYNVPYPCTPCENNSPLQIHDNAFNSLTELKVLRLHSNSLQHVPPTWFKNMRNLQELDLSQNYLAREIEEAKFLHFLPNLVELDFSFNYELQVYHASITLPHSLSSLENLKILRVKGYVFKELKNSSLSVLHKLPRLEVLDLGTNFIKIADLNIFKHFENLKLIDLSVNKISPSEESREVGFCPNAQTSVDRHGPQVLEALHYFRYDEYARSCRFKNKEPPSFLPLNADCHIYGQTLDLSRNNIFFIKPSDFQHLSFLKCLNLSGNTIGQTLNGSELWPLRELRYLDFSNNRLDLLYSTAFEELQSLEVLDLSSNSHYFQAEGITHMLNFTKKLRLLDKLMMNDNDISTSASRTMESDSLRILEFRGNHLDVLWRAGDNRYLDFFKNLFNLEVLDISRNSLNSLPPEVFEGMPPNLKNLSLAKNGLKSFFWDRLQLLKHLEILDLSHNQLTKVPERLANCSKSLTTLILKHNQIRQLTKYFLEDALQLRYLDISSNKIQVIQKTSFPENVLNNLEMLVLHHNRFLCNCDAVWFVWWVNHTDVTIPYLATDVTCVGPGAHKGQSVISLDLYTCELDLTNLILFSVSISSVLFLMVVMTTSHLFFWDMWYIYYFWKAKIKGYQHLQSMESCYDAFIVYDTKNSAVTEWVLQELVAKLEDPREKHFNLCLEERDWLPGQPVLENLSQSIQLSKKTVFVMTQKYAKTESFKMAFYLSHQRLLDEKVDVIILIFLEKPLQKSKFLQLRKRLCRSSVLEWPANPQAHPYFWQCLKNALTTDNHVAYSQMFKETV
Description: Inhibition of IMQ (TLR7 agonist)-induced TNF-α secretion in RAW264.7 cells, ELISA. The format is cell-based, murine. Conditions: for inhibition of secretion of TLR7-induced TNF-α: in the presence of IMQ, 1, 10 or 50 μM, ELISA (FIG. 7B and 7C). On the procedure:
as §1, §2
(§3) ODN 2395 was used as a ligand to activate TLR9 and IMQ was used to induce TLR7 activity. The inhibitory effects of TAC5-050 and TAC5-051 against TLR9 or TLR7 were determined. HCQ, which is known to inhibit endosomal TLRs, was used as a control group. Since the median inhibitory concentration was expected to range from 50 and 20 μM, the concentration range was set to decrease by half from the high concentration (50 μM) to the low concentration ([…]).
(§4) RAW264.7 cells (2×10^4 cells/well) were treated with small molecule compounds and HCQ for 1 hour (0.25% DMSO), incubated and then treated with ODN 2395 (0.5 μM) or IMQ (1 μg/ml) for 4 hours. Then, the ELISA for detecting mTNF-α was performed in accordance with the following protocol: • 1. Transfer samples from 96 well cell culture plate to elisa coated plate) and incubate for 2 h • 2. Treat detection antibody and incubate for 1 h • 3. Treat HRP and incubate for 30 min • 4. Treat TMB and read the samples by using micro-plate reader machine
On the technique in general: In an ELISA, binding on a coated surface is turned into a signal by an enzyme label.

The next data set has as its target T2, TLR9 (Mus musculus, UniProt Q9EQU3).
T2 construct: host or cells: RAW264.7 murine macrophages
T2 sequence (Q9EQU3 26-1032): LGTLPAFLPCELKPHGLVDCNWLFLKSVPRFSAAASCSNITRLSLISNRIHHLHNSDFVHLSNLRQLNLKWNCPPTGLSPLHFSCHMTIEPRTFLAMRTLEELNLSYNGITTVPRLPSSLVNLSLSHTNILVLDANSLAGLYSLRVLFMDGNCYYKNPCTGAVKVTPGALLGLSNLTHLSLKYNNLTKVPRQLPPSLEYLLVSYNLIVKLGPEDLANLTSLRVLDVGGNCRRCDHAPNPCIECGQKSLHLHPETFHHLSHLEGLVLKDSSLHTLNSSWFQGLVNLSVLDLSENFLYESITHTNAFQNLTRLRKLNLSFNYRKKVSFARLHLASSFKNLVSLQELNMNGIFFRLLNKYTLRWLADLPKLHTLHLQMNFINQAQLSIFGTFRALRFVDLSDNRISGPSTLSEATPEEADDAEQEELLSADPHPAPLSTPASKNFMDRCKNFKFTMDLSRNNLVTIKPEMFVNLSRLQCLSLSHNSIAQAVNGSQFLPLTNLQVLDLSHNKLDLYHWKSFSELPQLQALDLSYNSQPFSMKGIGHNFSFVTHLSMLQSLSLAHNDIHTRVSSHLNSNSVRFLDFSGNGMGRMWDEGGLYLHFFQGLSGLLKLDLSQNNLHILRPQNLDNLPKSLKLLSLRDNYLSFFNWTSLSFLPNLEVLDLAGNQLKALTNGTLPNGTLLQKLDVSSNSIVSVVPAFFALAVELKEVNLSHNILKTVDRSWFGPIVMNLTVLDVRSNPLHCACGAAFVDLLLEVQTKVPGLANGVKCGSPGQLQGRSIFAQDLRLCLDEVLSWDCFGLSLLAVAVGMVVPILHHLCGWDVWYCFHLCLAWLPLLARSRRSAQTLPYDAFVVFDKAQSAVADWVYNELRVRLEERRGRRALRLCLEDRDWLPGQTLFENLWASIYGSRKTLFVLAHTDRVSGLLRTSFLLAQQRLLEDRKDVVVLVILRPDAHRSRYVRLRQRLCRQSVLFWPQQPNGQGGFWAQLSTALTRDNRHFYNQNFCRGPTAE
As to the kind of experiment: Inhibition of ODN 2395 (TLR9 agonist)-induced TNF-α secretion in RAW264.7 cells, ELISA. The format is cell-based, murine. Conditions: for inhibition of secretion of TLR9-induced TNF-α: in the presence of ODN 2395, 1, 10 or 50 μM, ELISA (FIG. 7B and 7C). On the procedure:
as §1, §2, §3, §4

pIC50: −log10 of the molar value. Where two headings read alike, the source gives them in different places.

The text below walks through data of patent US12559489B2, “Antagonistic small molecule compound having toll-like receptor 7/9 inhibitory function” (AJOU UNIVERSITY INDUSTRY-ACADEMIC COOPERATION FOUNDATION, priority 2020, dated 2026).

Consider `O=C(c1ccc(Cl)c(F)c1)c1c[nH]c2ncccc12` [TAC5-054, (4-Chloro-3-fluoro-phenyl)-(1H-pyrrolo[2,3-b]pyridin-3-yl)-methanone], for which, in the data set with RAW264.7 cells, the “cytotoxicity (MTT assay)” value is given as “cytotoxic”.
Turning to `O=C(c1cccc([N+](=O)[O-])c1)c1c[nH]c2ncccc12` [TAC5-052, (3-Nitro-phenyl)-(1H-pyrrolo[2,3-b]pyridin-3-yl)-methanone], the “cytotoxicity (MTT assay)” value in the data set with RAW264.7 cells was “cytotoxic”. Further, the solubility result in data set [1] is on record as “low”.
One may read the pIC50 as the IC50 on a negative log10 scale, so that one unit is a factor of ten. `CC(C)n1cc(C(=O)c2ccccc2)c2cccnc21` [TAC5-050, (1-Isopropyl-1H-pyrrolo[2,3-b]pyridin-3-yl)-phenyl-methanone]: the “cytotoxicity (MTT assay)” value with RAW264.7 cells is “non-cytotoxic”. Besides, the figures for the pIC50 at TLR7 and on TLR9 were 4.62 and 4.27, respectively. The “inhibition of secretion of TLR7-induced TNF-α” value on TLR7 (RAW264.7 cells) is “inhibited the secretion of TLR7- or TLR9-induced TNF-α in a dose-dependent manner”. Further, the “inhibition of secretion of TLR9-induced TNF-α” value on TLR9 (RAW264.7 cells) is given as “inhibited the secretion of TLR7- or TLR9-induced TNF-α in a dose-dependent manner”.
As for `O=C(c1ccccc1)c1cn(S(=O)(=O)c2ccccc2)c2ncccc12` [TAC5-051, (1-Benzenesulfonyl-1H-pyrrolo[2,3-b]pyridin-3-yl)-phenyl-methanone], the “cytotoxicity (MTT assay)” value in the data set with RAW264.7 cells was “non-cytotoxic”. For the same compound, the pIC50 is 4.96 on TLR7 (RAW264.7 cells, compound 1 hour, then IMQ (1 μg/ml) 4 hours, mTNF-α ELISA (FIG. 9), read-out: IC50 for TLR7) and 4.86 at TLR9 (RAW264.7 cells, compound 1 hour, then ODN 2395 (0.5 μM) 4 hours, mTNF-α ELISA (FIG. 8), read-out: IC50 for TLR9). Moreover, the “inhibition of secretion of TLR7-induced TNF-α” value on TLR7 (RAW264.7 cells) is given as “inhibited the secretion of TLR7- or TLR9-induced TNF-α in a dose-dependent manner”. For the same compound, on TLR9 (RAW264.7 cells), the “inhibition of secretion of TLR9-induced TNF-α” value was “inhibited the secretion of TLR7- or TLR9-induced TNF-α in a dose-dependent manner”.
For the compound `O=C(c1ccccc1)c1c[nH]c2ncc(Cl)cc12` [TAC5-055, (5-Chloro-1H-pyrrolo[2,3-b]pyridin-3-yl)-phenyl-methanone], in the data set on RAW264.7 cells, the “cytotoxicity (MTT assay)” value is “cytotoxic”.
For `O=C(c1ccc(Cl)c(Cl)c1)c1c[nH]c2ncccc12` [TAC5-053, (3,4-Dichloro-phenyl)-(1H-pyrrolo[2,3-b]pyridin-3-yl)-methanone], the “cytotoxicity (MTT assay)” value in the data set with RAW264.7 cells is on record as “cytotoxic”.
